Reference: publication PMC8562313, “Cytotoxicity of Amino‐BODIPY Modulated via Conjugation with 2‐Phenyl‐3‐Hydroxy‐4(1H)‐Quinolinones” (ChemistryOpen, 2021)
Like-named read-outs stand apart in the source and are kept apart here.

Key:
[1] = GSH-mediated cleavage monitored by LC/MS; type: physicochemical; conditions: 5 mM GSH, 5 μM conjugate 11 in HEPES buffer, 7.4 pH, 37 °C
Excerpt: As reported previously, the GSH mediated cleavage of the disulfide linker results in the release of the 3‐HQ derivative together with the Amino‐BODIPY.[30] […] As the mechanism of GSH‐mediated cleavage and LC/MS analysis in Figure 2A and 2B depict nucleophilic thiol group on glutathione attacks the disulfide bond resulting in the formation of GSH adducts 19 and 20. Intermediate 19 further reacts with excess of GSH and self‐immolative linker is cyclized while free Amino‐BODIPY 16 is released.
Figure 2 (A) Mechanism of GSH‐mediated cleavage of conjugate 11 (5 mM GSH, 5 μM conjugate 11 in HEPES buffer, 7.4 pH, 37 °C). (B) Time‐dependent stability of compounds 1, 11, 16, 19 and 20 monitored by LC/MS. (C) Excitation/emission spectra of the conjugate 11 and the released Amino‐BODIPY 16 enabling the OFF‐ON fluorescence effect when excitation at 485 nm and emission at 530 nm is applied.

[2] = tested on: cancer cell lines; conditions: cited from earlier work
[3] = tested on: lung fibroblast cell line MRC‐5; experiment: Toxicity to non-tumor fibroblasts MRC; type: cell-based, human
Method: (§1) Finally, the amino‐BODIPY 16 and all prepared conjugates 1–15 were tested for cytotoxic activity against selected cancer cell lines (Table 1). The tests were performed on cancer cell lines derived from solid tumors as well as hematological malignancies: CCRF‐CEM (acute lymphoblastic leukemia), K562 (chronic myeloid leukemia), A549 (lung adenocarcinoma), colorectal carcinoma cell lines HCT116 with and without functional p53 protein HCT116p53, respectively. The panel also included chemoresistant subclone CCRF‐CEM‐DNR (resistant to daunorubicine) overexpressing P‐glycoprotein and/or lung resistance‐related protein (LRP), which are pumps or detoxifying systems responsible for the most common forms of clinical resistance. To evaluate non‐tumor cells′ toxicity, we used human skin fibroblast cell line BJ and lung fibroblast cell line MRC‐5. […] This dye is also slightly toxic to normal fibroblast BJ and MRC with IC50>40 μM and low‐density seeding variants BJ‐LD and MRC‐LD with higher proliferation and no contact inhibition. Connection of amino‐BODIPY 16 with 3‐HQs via non‐cleavable maleimide linker (conjugates 6–10) as well as via cleavable linker (compounds 11–15) causes higher selectivity toward CCRF‐CEM lines. […] The selectivity of conjugates toward leukemia cells could be caused by interaction with a specific target for the CCRF‐CEM or K562 cells, respectively, or by particular transport to these cell lines. The later reason could explain the lower toxicity of amino‐BODIPY released from the conjugate compared to free amino‐BODIPY 16 directly applied to the cells.

[4] = tested on: skin fibroblast cell line BJ; experiment: Toxicity to non-tumor fibroblasts BJ; type: cell-based, human
Method: as §1

[5] = tested on: HCT116p53 (colorectal carcinoma); experiment: Cytotoxic activity against HCT116p53; type: cell-based; conditions: average of at least three independent experiments
Method: as §1

[6] = tested on: CCRF‐CEM‐DNR (resistant to daunorubicine); experiment: Cytotoxic activity against CEM-DNR; type: cell-based; conditions: Homo sapiens, daunorubicine-resistant subclone, average of at least three independent experiments
Method: as §1

[7] = tested on: U2OS; experiment: Cytotoxic activity against U2OS; type: cell-based; conditions: Homo sapiens, average of at least three independent experiments
[8] = tested on: K562 (chronic myeloid leukemia); experiment: Cytotoxic activity against K562; type: cell-based; conditions: Homo sapiens, average of at least three independent experiments
Method: as §1

[9] = tested on: K562‐TAX; experiment: Cytotoxic activity against K562-TAX; type: cell-based; conditions: average of at least three independent experiments
[10] = tested on: A549 (lung adenocarcinoma); experiment: Cytotoxic activity against A549; type: cell-based; conditions: Homo sapiens, average of at least three independent experiments
Method: as §1

[11] = tested on: MRC‐LD (low‐density seeding variant); experiment: Toxicity to non-tumor fibroblasts MRC-LD; type: cell-based; conditions: Homo sapiens, Fibroblast, higher proliferation, no contact inhibition
Method: as §1

[12] = tested on: BJ‐LD (low‐density seeding variant); experiment: Toxicity to non-tumor fibroblasts BJ-LD; type: cell-based; conditions: Homo sapiens, Fibroblast, higher proliferation, no contact inhibition
Method: as §1

[13] = tested on: HCT116 (colorectal carcinoma); experiment: Cytotoxic activity against HCT116; type: cell-based; conditions: Homo sapiens, HCT-116; average of at least three independent experiments
Method: as §1

[14] = tested on: CCRF‐CEM (acute lymphoblastic leukemia); experiment: Cytotoxic activity against CCRF-CEM; type: cell-based; conditions: Homo sapiens, average of at least three independent experiments
Method: as §1

[15] = Homo sapiens, MRC5, non-tumor lung fibroblasts

Stability of cleavage intermediate by LC/MS [1]	Structure (SMILES)	Activity and selectivity toward cancer cells [2]	IC50 [3, 15] [µM]	IC50 ([4]; Homo sapiens, Skin fibroblast) [µM]	IC50 [5] [µM]	IC50 [6] [µM]	IC50 [7] [µM]	IC50 [8] [µM]	IC50 [9] [µM]	IC50 [10] [µM]	IC50 [11] [µM]	IC50 [12] [µM]	IC50 [13] [µM]	IC50 [14] [µM]	Cytotoxicity against cancer cells [2]	Activity against various cancer cell lines ([2]; reported previously, no reference given)	IC50 ([3]; non-tumor lung fibroblasts) [µM]	IC50 [4] [µM]	Activity against cancer cells [2]	Activity and selectivity against cancer cell lines [2]
relatively stable	NC(=O)C(CSSC[C@H](NC(=O)CC[C@H](N)C(=O)O)C(=O)NCC(=O)O)NC(=O)c1ccc2c(=O)c(O)c(-c3ccccc3)[nH]c2c1 (stereo partly drawn) [Compound 20]	–	–	–	–	–	–	–	–	–	–	–	–	–	–	–	–	–	–	–
–	NC(=O)c1cc(-c2[nH]c3ccccc3c(=O)c2O)ccc1N1CCCCC1 [2‐(3‐carboxamide‐4‐piperid‐1‐ylphenyl)‐3‐hydroxy‐4(1H)‐quinolinone]	significant activity and increased selectivity	–	–	–	–	–	–	–	–	–	–	–	–	–	–	–	–	–	–
–	Cc1cc(C)n2c1C=C1C=CC(NC(=O)OCCSSCC(NC(=O)c3ccc4c(=O)c(O)c(-c5ccc(F)cc5)[nH]c4c3)C(N)=O)=[N+]1[B-]2(F)F (stereo not drawn) [Compound 12]	–	> 50	> 50	49.8	26.5	42.3	44.6	33.6	46.4	> 50	> 50	> 50	8.14	–	–	–	–	–	–
–	Cc1cc(C)n2c1C=C1C=CC(NC(=O)OCCCN3C(=O)CC(SCC(NC(=O)c4ccc5c(=O)c(O)c(-c6cc(Cl)c(N)c(Cl)c6)[nH]c5c4)C(N)=O)C3=O)=[N+]1[B-]2(F)F (stereo not drawn) [Compound 8]	–	> 50	> 50	> 50	> 50	> 50	> 50	> 50	> 50	> 50	> 50	> 50	12.7	–	–	–	–	–	–
–	Cc1cc(C)n2c1C=C1C=CC(NC(=O)OCCCN3C(=O)CC(SCC(NC(=O)c4ccc5c(=O)c(O)c(-c6ccc(F)cc6)[nH]c5c4)C(N)=O)C3=O)=[N+]1[B-]2(F)F (stereo not drawn) [Compound 7]	–	> 50	> 50	> 50	> 50	> 50	> 50	> 50	> 50	> 50	> 50	> 50	6.37	–	–	–	–	–	–
–	O=c1c(O)c(-c2ccc(F)cc2)[nH]c2ccccc12 [2‐(4‐fluorophenyl)‐3‐hydroxy‐4(1H)‐quinolinone]	–	–	–	–	–	–	–	–	–	–	–	–	–	low cytotoxicity	–	–	–	–	–
–	Cc1cc(C)n2c1C=C1C=CC(NC(=O)OCCCN3C(=O)CC(SCC(NC(=O)c4ccc5c(=O)c(O)c(-c6ccc(N7CCCCC7)c([N+](=O)[O-])c6)[nH]c5c4)C(N)=O)C3=O)=[N+]1[B-]2(F)F (stereo not drawn) [Compound 9]	–	> 50	> 50	> 50	> 50	> 50	4.05	> 50	> 50	–	–	> 50	> 50	–	–	–	–	–	–
–	Cc1cc(C)n2c1C=C1C=CC(NC(=O)OCCSSCC(NC(=O)c3ccc4c(=O)c(O)c(-c5ccc(N6CCCCC6)c(C(N)=O)c5)[nH]c4c3)C(N)=O)=[N+]1[B-]2(F)F (stereo not drawn) [Compound 15]	–	> 50	> 50	> 50	46.2	> 50	> 50	46.2	> 50	> 50	> 50	> 50	> 50	–	–	–	–	–	–
–	Cc1cc(C)n2c1C=C1C=CC(NC(=O)OCCCN3C(=O)CC(SCC(NC(=O)c4ccc5c(=O)c(O)c(-c6ccc(N7CCCCC7)c(C(N)=O)c6)[nH]c5c4)C(N)=O)C3=O)=[N+]1[B-]2(F)F (stereo not drawn) [Compound 10]	–	> 50	> 50	> 50	> 50	> 50	> 50	49.6	> 50	> 50	> 50	> 50	5.1	–	–	–	–	–	–
–	Cc1cc(C)n2c1C=C1C=CC(NC(=O)OCCSSCC(NC(=O)c3ccc4c(=O)c(O)c(-c5ccc(N6CCCCC6)c([N+](=O)[O-])c5)[nH]c4c3)C(N)=O)=[N+]1[B-]2(F)F (stereo not drawn) [Compound 14]	–	> 50	> 50	42.6	37.9	44.1	29.9	40.6	46.3	> 50	> 50	39.7	1.52	–	–	–	–	–	–
–	Cc1cc(C)n2c1C=C1C=CC(NC(=O)OCCSSCC(NC(=O)c3ccc4c(=O)c(O)c(-c5cc(Cl)c(N)c(Cl)c5)[nH]c4c3)C(N)=O)=[N+]1[B-]2(F)F (stereo not drawn) [Compound 13]	–	> 50	> 50	> 50	40.1	> 50	41.4	41.8	> 50	> 50	> 50	> 50	2.59	–	–	–	–	–	–
–	Cc1cc(C)n2c1C=C1C=CC(NC(=O)OCCSSCC(NC(=O)c3ccc4c(=O)c(O)c(-c5ccccc5)[nH]c4c3)C(N)=O)=[N+]1[B-]2(F)F (stereo not drawn) [Compound 11]	–	> 50	> 50	> 50	34.4	> 50	49.8	39.8	49.9	> 50	> 50	> 50	19.7	–	–	–	–	–	–
–	Nc1c(Cl)cc(-c2[nH]c3ccccc3c(=O)c2O)cc1Cl [2‐(4‐amino‐3,5‐dichlorophenyl)‐3‐hydroxy‐4(1H)‐quinolinone]	–	–	–	–	–	–	–	–	–	–	–	–	–	–	active	–	–	–	–
–	Cc1cc(C)n2c1C=C1C=CC(N)=[N+]1[B-]2(F)F [Compound 16, amino‐BODIPY]	–	> 40	> 40	12.7	5.08	19.8	3.29	6.41	47.2	26.9	28.1	11.6	4.25	–	–	40.1	49.7	–	–
–	O=c1c(O)c(-c2ccccc2)[nH]c2ccccc12 [2‐phenyl‐3‐hydroxy‐4(1H)‐quinolinone]	–	–	–	–	–	–	–	–	–	–	–	–	–	–	–	–	–	no activity	–
–	O=c1c(O)c(-c2ccc(N3CCCCC3)c([N+](=O)[O-])c2)[nH]c2ccccc12 [2‐(3‐nitro‐4‐piperid‐1‐ylphenyl)‐3‐hydroxy‐4(1H)‐quinolinone]	–	–	–	–	–	–	–	–	–	–	–	–	–	–	–	–	–	–	significant activity but low selectivity
–	Cc1cc(C)n2c1C=C1C=CC(NC(=O)OCCCN3C(=O)CC(SCC(NC(=O)c4ccc5c(=O)c(O)c(-c6ccccc6)[nH]c5c4)C(N)=O)C3=O)=[N+]1[B-]2(F)F (stereo not drawn) [Compound 6]	–	> 50	> 50	> 50	> 50	> 50	> 50	> 50	> 50	> 50	> 50	> 50	14.6	–	–	–	–	–	–
